From patent US10800752B2, “Substituted naphtho[2,3-b]furans as water-soluble prodrugs for preventing and/or treating cancer” (BOSTON BIOMEDICAL, INC., priority 2015, dated 2020)
Where two headings read alike, the source gives them in different places.

Type: in vivo, CD1 (ICR) mice
Conditions: for Plasma Compound Concentration: Activated form 1 in plasma, 232.5 mg/kg (p.o.)
Text: It was then centrifuged to obtain plasma.

COC(=O)[C@@H](N)CCNC(=O)Oc1c2ccccc2c(OC(=O)NCC[C@H](N)C(=O)OC)c2oc(C(C)=O)cc12.Cl.Cl [Example 11]
Plasma Compound Concentration (0.25 hr, animal 1): 18.86 µM | Plasma Compound Concentration (0.25 hr, animal 2): 19.65 µM | Plasma Compound Concentration (0.25 hr, animal 3): 25.31 µM | Plasma Compound Concentration (0.25 hr, mean): 21.27 µM | Plasma Compound Concentration (0.5 hr, animal 1): 17.48 µM | Plasma Compound Concentration (0.5 hr, animal 2): 11.45 µM | Plasma Compound Concentration (0.5 hr, animal 3): 17.11 µM | Plasma Compound Concentration (0.5 hr, mean): 15.35 µM | Plasma Compound Concentration (1.0 hr, animal 1): 10.87 µM | Plasma Compound Concentration (1.0 hr, animal 2): 18.98 µM | Plasma Compound Concentration (1.0 hr, animal 3): 15.93 µM | Plasma Compound Concentration (1.0 hr, mean): 15.26 µM | Plasma Compound Concentration (2.0 hr, animal 1): 13.53 µM | Plasma Compound Concentration (2.0 hr, animal 2): 6.62 µM | Plasma Compound Concentration (2.0 hr, animal 3): 13.57 µM | Plasma Compound Concentration (2.0 hr, mean): 11.24 µM | Plasma Compound Concentration (4.0 hr, animal 1): 6.12 µM | Plasma Compound Concentration (4.0 hr, animal 2): 3.73 µM | Plasma Compound Concentration (4.0 hr, animal 3): 11.49 µM | Plasma Compound Concentration (4.0 hr, mean): 7.11 µM | Plasma Compound Concentration (6.0 hr, animal 1): 2.37 µM | Plasma Compound Concentration (6.0 hr, animal 2): 0.60 µM | Plasma Compound Concentration (6.0 hr, animal 3): 0.75 µM | Plasma Compound Concentration (6.0 hr, mean): 1.24 µM | Plasma Compound Concentration (24.0 hr, animal 3): 0.04 µM | Plasma Compound Concentration (24.0 hr, mean): 0.01 µM | concentration of 2-acetylnaphtho[2,3-b]furan-4,9-dione (Activated form 1) observed (in words) (orally administered to mice): high concentration
